According to patent EP1247803A2, “Indolinone compounds suitable for modulation of protein kinases” (Sugen, Inc., priority 1996, dated 1998):

molecular target: T1, EGFR (Homo sapiens, UniProt P00533); assay: EGFR ELISA assay (in vitro kinase activity, EGFR captured from A431 cell lysate); type: biochemical; design: concentration or dose not given beside the values
T1 construct: Add 7 ug A431 cell lysate per well (EGFR source); endogenous in cells; host or cells: A431
Outline: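 Receptor autophosphorylation was read by ELISA: anti-phosphotyrosine serum and an HRP-linked secondary with ABTS substrate, absorbance at 410 nm (reference 630 nm). The reaction ran 5 min with 3 µM ATP and 5 mM MnCl2 and was quenched by 20 mM EDTA. Compounds were first incubated 30 min with antibody-captured EGFR from A431 cell lysate.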

T1 sequence (P00533 25-1210): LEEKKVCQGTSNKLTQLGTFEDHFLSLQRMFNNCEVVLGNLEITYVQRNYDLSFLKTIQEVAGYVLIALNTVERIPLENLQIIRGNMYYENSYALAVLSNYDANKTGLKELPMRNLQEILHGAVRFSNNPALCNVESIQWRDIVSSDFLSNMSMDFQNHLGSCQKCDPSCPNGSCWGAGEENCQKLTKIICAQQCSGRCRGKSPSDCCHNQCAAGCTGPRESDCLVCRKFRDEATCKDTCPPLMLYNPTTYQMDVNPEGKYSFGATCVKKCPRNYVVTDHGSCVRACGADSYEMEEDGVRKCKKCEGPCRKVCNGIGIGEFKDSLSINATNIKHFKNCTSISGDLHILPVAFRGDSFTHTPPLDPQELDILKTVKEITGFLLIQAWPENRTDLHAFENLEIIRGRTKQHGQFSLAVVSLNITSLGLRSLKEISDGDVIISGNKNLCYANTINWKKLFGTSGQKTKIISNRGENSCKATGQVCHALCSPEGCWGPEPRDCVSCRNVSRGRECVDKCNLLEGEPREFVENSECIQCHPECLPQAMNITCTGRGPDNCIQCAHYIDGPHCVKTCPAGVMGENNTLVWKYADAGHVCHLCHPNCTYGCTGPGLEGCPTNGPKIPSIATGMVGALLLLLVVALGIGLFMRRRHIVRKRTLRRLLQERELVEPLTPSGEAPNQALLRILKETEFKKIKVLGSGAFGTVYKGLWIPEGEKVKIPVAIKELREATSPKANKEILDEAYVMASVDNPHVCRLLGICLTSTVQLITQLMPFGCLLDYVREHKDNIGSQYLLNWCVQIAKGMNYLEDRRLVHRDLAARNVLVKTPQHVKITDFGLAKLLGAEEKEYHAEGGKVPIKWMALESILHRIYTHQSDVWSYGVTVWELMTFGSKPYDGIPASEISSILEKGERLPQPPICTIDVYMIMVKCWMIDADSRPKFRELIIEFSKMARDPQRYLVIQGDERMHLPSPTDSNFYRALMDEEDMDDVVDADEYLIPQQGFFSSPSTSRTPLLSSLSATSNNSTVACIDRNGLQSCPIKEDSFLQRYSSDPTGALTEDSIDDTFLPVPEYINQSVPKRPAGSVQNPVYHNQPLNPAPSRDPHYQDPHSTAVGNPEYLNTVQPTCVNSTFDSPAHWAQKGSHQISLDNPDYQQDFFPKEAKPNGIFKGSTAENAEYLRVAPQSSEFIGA

Point of comparison: COc1cccc(C=C2C(=O)Nc3ccc(S(=O)(=O)Nc4ccc(C(F)(F)F)cc4)cc32)c1OC [10727/E11], “Biochem EGFR %Inhibition” value -33.4%. Against it:
- Cc1[nH]c(C=C2C(=O)Nc3ccc(CCCl)cc32)c(Br)c1Br [10717/G11] — higher, 71.7%
- CCOC(=O)c1c(C)[nH]c(C=C2C(=O)Nc3c(Br)cc(Br)cc32)c1C [10718/A02] — higher, 11.3%
- COc1cc(Br)c(O)c(C=C2C(=O)Nc3c(Br)cc(Br)cc32)c1 [10718/A03] — higher, -6.1%
- O=C1Nc2c(Br)cc(Br)cc2C1=Cc1ccc2ccccc2c1O [10718/A04] — higher, 27.3%
- CCOC(=O)CCc1c(C(=O)OCC)[nH]c(C=C2C(=O)Nc3c(Br)cc(Br)cc32)c1CC(=O)OCC [10718/A05] — higher, -6.9%
- CCOC(=O)c1cc(C=C2C(=O)Nc3c(Br)cc(Br)cc32)oc1C [10718/A06] — higher, 19.4%
- COC(=O)c1[nH]c(C)c(C=C2C(=O)Nc3c(Br)cc(Br)cc32)c1C(=O)OC [10718/A07] — higher, -10.6%
- O=C1Nc2c(Br)cc(Br)cc2C1=Cc1ccc(Cl)c([N+](=O)[O-])c1 [10718/A08] — higher, 5.8%
- CNS(=O)(=O)c1ccc2c(c1)C(=Cc1cc(Cl)cc(Br)c1O)C(=O)N2 [10727/D04] — higher, 39.6%
- CNS(=O)(=O)c1ccc2c(c1)C(=Cc1ccccc1Sc1ccc(Cl)cc1)C(=O)N2 [10727/D05] — higher, 3.4%
- CNS(=O)(=O)c1ccc2c(c1)C(=Cc1cc3c(cc1Cl)OCO3)C(=O)N2 [10727/D06] — higher, 8.6%
- CNS(=O)(=O)c1ccc2c(c1)C(=Cc1coc3ccccc3c1=O)C(=O)N2 [10727/D07] — higher, 10.5%
- CNS(=O)(=O)c1ccc2c(c1)C(=Cc1cccc(C#N)c1)C(=O)N2 [10727/D08] — higher, -0.5%
- CNS(=O)(=O)c1ccc2c(c1)C(=Cc1ccc(C#N)cc1)C(=O)N2 [10727/D09] — higher, 15.1%
- CNS(=O)(=O)c1ccc2c(c1)C(=Cc1cc(O)ccc1O)C(=O)N2 [10727/D10] — higher, 86.2%
- CNS(=O)(=O)c1ccc2c(c1)C(=Cc1cccc(OC)c1OC)C(=O)N2 [10727/D11] — higher, -23.7%
- CCN(CC)c1ccc(C=C2C(=O)Nc3ccc(S(=O)(=O)Nc4ccc(C(F)(F)F)cc4)cc32)cc1 [10727/E02] — higher, 22.4%
- CCc1cc(CC)c(C=C2C(=O)Nc3ccc(S(=O)(=O)Nc4ccc(C(F)(F)F)cc4)cc32)[nH]1 [10727/E03] — higher, 35.5%
- O=C1Nc2ccc(S(=O)(=O)Nc3ccc(C(F)(F)F)cc3)cc2C1=Cc1cc(Cl)cc(Br)c1O [10727/E04] — higher, 82.1%
- O=C1Nc2ccc(S(=O)(=O)Nc3ccc(C(F)(F)F)cc3)cc2C1=Cc1ccccc1Sc1ccc(Cl)cc1 [10727/E05] — higher, 12.9%
- O=C1Nc2ccc(S(=O)(=O)Nc3ccc(C(F)(F)F)cc3)cc2C1=Cc1cc2c(cc1Cl)OCO2 [10727/E06] — higher, -9.3%
- O=C1Nc2ccc(S(=O)(=O)Nc3ccc(C(F)(F)F)cc3)cc2C1=Cc1coc2ccccc2c1=O [10727/E07] — higher, 7.1%
- N#Cc1cccc(C=C2C(=O)Nc3ccc(S(=O)(=O)Nc4ccc(C(F)(F)F)cc4)cc32)c1 [10727/E08] — higher, 25.6%
- N#Cc1ccc(C=C2C(=O)Nc3ccc(S(=O)(=O)Nc4ccc(C(F)(F)F)cc4)cc32)cc1 [10727/E09] — higher, 15.1%
- O=C1Nc2ccc(S(=O)(=O)Nc3ccc(C(F)(F)F)cc3)cc2C1=Cc1cc(O)ccc1O [10727/E10] — higher, 85.1%
- CCN(CC)c1ccc(C=C2C(=O)Nc3ccc(S(=O)(=O)N4CCOCC4)cc32)cc1 [10727/F02] — higher, -0.5%
- CCc1cc(CC)c(C=C2C(=O)Nc3ccc(S(=O)(=O)N4CCOCC4)cc32)[nH]1 [10727/F03] — higher, 36.8%
- O=C1Nc2ccc(S(=O)(=O)N3CCOCC3)cc2C1=Cc1cc(Cl)cc(Br)c1O [10727/F04] — higher, 17.9%
- O=C1Nc2ccc(S(=O)(=O)N3CCOCC3)cc2C1=Cc1ccccc1Sc1ccc(Cl)cc1 [10727/F05] — higher, -9.1%
- O=C1Nc2ccc(S(=O)(=O)N3CCOCC3)cc2C1=Cc1cc2c(cc1Cl)OCO2 [10727/F06] — higher, 4.9%
- O=C1Nc2ccc(S(=O)(=O)N3CCOCC3)cc2C1=Cc1coc2ccccc2c1=O [10727/F07] — higher, -8.9%
- N#Cc1cccc(C=C2C(=O)Nc3ccc(S(=O)(=O)N4CCOCC4)cc32)c1 [10727/F08] — higher, -5.4%
- N#Cc1ccc(C=C2C(=O)Nc3ccc(S(=O)(=O)N4CCOCC4)cc32)cc1 [10727/F09] — higher, -2.0%
- O=C1Nc2ccc(S(=O)(=O)N3CCOCC3)cc2C1=Cc1cc(O)ccc1O [10727/F10] — higher, 74.1%
- COc1cccc(C=C2C(=O)Nc3ccc(S(=O)(=O)N4CCOCC4)cc32)c1OC [10727/F11] — higher, -2.6%
- CCN(CC)c1ccc(C=C2C(=O)Nc3ccc(CCCl)cc32)cc1 [10727/G02] — higher, 37.5%
- CCc1cc(CC)c(C=C2C(=O)Nc3ccc(CCCl)cc32)[nH]1 [10727/G03] — higher, 19.4%
- O=C1Nc2ccc(CCCl)cc2C1=Cc1cc(Cl)cc(Br)c1O [10727/G04] — higher, 80.6%
- O=C1Nc2ccc(CCCl)cc2C1=Cc1ccccc1Sc1ccc(Cl)cc1 [10727/G05] — higher, 11.2%
- O=C1Nc2ccc(CCCl)cc2C1=Cc1cc2c(cc1Cl)OCO2 [10727/G06] — higher, -12.1%
- O=C1Nc2ccc(CCCl)cc2C1=Cc1coc2ccccc2c1=O [10727/G07] — higher, 5.4%
- N#Cc1cccc(C=C2C(=O)Nc3ccc(CCCl)cc32)c1 [10727/G08] — higher, -19.6%
- N#Cc1ccc(C=C2C(=O)Nc3ccc(CCCl)cc32)cc1 [10727/G09] — higher, -9.7%
- O=C1Nc2ccc(CCCl)cc2C1=Cc1cc(O)ccc1O [10727/G10] — higher, 85.1%
- COc1cccc(C=C2C(=O)Nc3ccc(CCCl)cc32)c1OC [10727/G11] — higher, -3.5%
- COc1ccc(OC)c(C=C2C(=O)Nc3c(Br)cc(Br)cc32)c1 [10728/A02] — higher, 9.2%
- COc1cccc(OC)c1C=C1C(=O)Nc2c(Br)cc(Br)cc21 [10728/A03] — higher, -25.8%
- COc1cc(C=C2C(=O)Nc3c(Br)cc(Br)cc32)cc(OC)c1 [10728/A04] — higher, 28.0%
- COc1cc(N(C)C)ccc1C=C1C(=O)Nc2c(Br)cc(Br)cc21 [10728/A05] — higher, 17.7%
- O=C1Nc2c(Br)cc(Br)cc2C1=Cc1ccc2c(c1)Cc1ccccc1-2 [10728/A06] — higher, 17.2%
- O=C1Nc2c(Br)cc(Br)cc2C1=Cc1cccc(C(F)(F)F)c1F [10728/A07] — higher, 59.6%
- O=C1Nc2c(Br)cc(Br)cc2C1=Cc1cc(C(F)(F)F)ccc1F [10728/A08] — higher, 24.1%
- O=C1Nc2c(Br)cc(Br)cc2C1=Cc1c(F)cccc1C(F)(F)F [10728/A09] — higher, 19.3%
- O=C(O)COc1ccccc1C=C1C(=O)Nc2c(Br)cc(Br)cc21 [10728/A10] — higher, -3.4%
- COc1cc(C=C2C(=O)Nc3c(Br)cc(Br)cc32)cc2c1OCO2 [10728/A11] — higher, -0.6%
- COc1ccc(OC)c(C=C2C(=O)Nc3ccc(I)cc32)c1 [10728/B02] — higher, -10.5%
- COc1cccc(OC)c1C=C1C(=O)Nc2ccc(I)cc21 [10728/B03] — lower, -36.6%
- COc1cc(C=C2C(=O)Nc3ccc(I)cc32)cc(OC)c1 [10728/B04] — higher, -2.0%
- COc1cc(N(C)C)ccc1C=C1C(=O)Nc2ccc(I)cc21 [10728/B05] — higher, 26.9%
- O=C1Nc2ccc(I)cc2C1=Cc1cccc(C(F)(F)F)c1F [10728/B07] — higher, 11.1%
- O=C1Nc2ccc(I)cc2C1=Cc1cc(C(F)(F)F)ccc1F [10728/B08] — higher, 34.7%
- O=C1Nc2ccc(I)cc2C1=Cc1c(F)cccc1C(F)(F)F [10728/B09] — higher, 31.7%
- O=C(O)COc1ccccc1C=C1C(=O)Nc2ccc(I)cc21 [10728/B10] — higher, 16.8%
- COc1cc(C=C2C(=O)Nc3ccc(I)cc32)cc2c1OCO2 [10728/B11] — higher, 48.2%
- COc1ccc(OC)c(C=C2C(=O)Nc3ccc(Br)c(C)c32)c1 [10728/C02] — lower, -35.4%
- COc1cccc(OC)c1C=C1C(=O)Nc2ccc(Br)c(C)c21 [10728/C03] — higher, 9.7%
- COc1cc(C=C2C(=O)Nc3ccc(Br)c(C)c32)cc(OC)c1 [10728/C04] — higher, 16.1%
- COc1cc(N(C)C)ccc1C=C1C(=O)Nc2ccc(Br)c(C)c21 [10728/C05] — higher, 16.1%
- Cc1c(Br)ccc2c1C(=Cc1ccc3c(c1)Cc1ccccc1-3)C(=O)N2 [10728/C06] — higher, 4.2%
- Cc1c(Br)ccc2c1C(=Cc1cccc(C(F)(F)F)c1F)C(=O)N2 [10728/C07] — higher, 8.3%
- Cc1c(Br)ccc2c1C(=Cc1cc(C(F)(F)F)ccc1F)C(=O)N2 [10728/C08] — higher, 17.5%
- Cc1c(Br)ccc2c1C(=Cc1c(F)cccc1C(F)(F)F)C(=O)N2 [10728/C09] — higher, -6.8%
- Cc1c(Br)ccc2c1C(=Cc1ccccc1OCC(=O)O)C(=O)N2 [10728/C10] — higher, 4.4%
- COc1cc(C=C2C(=O)Nc3ccc(Br)c(C)c32)cc2c1OCO2 [10728/C11] — higher, 21.8%
- CNS(=O)(=O)c1ccc2c(c1)C(=Cc1cc(OC)ccc1OC)C(=O)N2 [10728/D02] — higher, 9.9%
- CNS(=O)(=O)c1ccc2c(c1)C(=Cc1c(OC)cccc1OC)C(=O)N2 [10728/D03] — higher, 10.8%
- CNS(=O)(=O)c1ccc2c(c1)C(=Cc1cc(OC)cc(OC)c1)C(=O)N2 [10728/D04] — higher, -1.1%
